In patent publication US12365651B2, “Use of pirfenidone and derivatives for modulation of B lymphocyte activity and organ protection from acute tissue damage” (Washington University, priority 2017, dated 2025):
Values joined by “and” are separate entries in the source; they are usually repeats but may differ in a detail not shown here. Equal values may be shown once.

Columns and labels:
[1] = test system: naïve WT hearts; experiment: Flow cytometry of naïve WT hearts after Pirfenidone for 1 week; type: in vivo, mouse; settings: Pirfenidone 1 week
Excerpt: Accordingly, we performed FACS analysis 4 days after DT injection.
In order to administer Pirfenidone, mice were fed powdered chow mixed with Pirfenidone (eNovation Chemicals, Bridgewater, NJ, USA, Cat #D404655) at 0.5% in weight or powdered chow alone. […] Unless specifically noted, mice were switched to a diet enriched with Pirfenidone 3 days prior to DT-induced injury or I/R-injury, and maintained on this diet throughout the duration of the experiments. In parallel studies, we fed mice normal chow prior to I/R injury and then administered Pirfenidone acutely at the time of cardiac injury. For these latter studies, mice were injected i.p. with diluent (200 μL phosphate-buffered solution [PBS]) or i.p. with Pirfenidone (200 μL of Pirfenidone [5 mg/mL] in PBS) after reperfusion and the morning after I/R injury (2 injections total). They were switched to Pirfenidone-enriched diet or control diet the evening of I/R injury and maintained on the same diet until completion of the experiment.
For flow cytometry experiments, mice were euthanized in a CO2 chamber and the hearts were perfused with cold PBS, carefully dissected from extracardiac tissue under a stereo microscope, finely minced, suspended in 3 ml of DMEM, and then digested with 120 U of DNAse (Sigma), 180 U of hyaluronidase (Sigma) and 1350 U of Collagenase (Sigma) for 60 minutes at 37Co. The digested material was filtered through 40 μm filters and pelleted by centrifugation (250×g for 3 minutes at 4° C.) in HBSS supplemented with 2% FCS+0.2% bovine serum albumin (BSA). Red blood cells were lysed in ACK lysis buffer (Invitrogen) for 15′ on ice and the remaining cells were resuspended in 300 μL of FACS buffer (PBS with 2% FCS and 2 mM EDTA). Cultured cells were collected for FACS analysis as described above and resuspended in 300 μL of FACS buffer. Samples were labeled with the fluorescently conjugated antibodies outlined in the table below. Cells were stained for 45 minutes on ice, and washed in FACS buffer prior to analysis. All antibodies from Biolegend were used at 0.2 μL per 300 μL sample, while antibodies from BD biosciences were used at 0.4 μL per 300 μL sample. FACS was performed on Beckton Dickinson analyzers (LSRII, Canto, X20 or Fortessa). Compensation controls were generated using UltraComp ebeads (Invitrogen, Carlsbad, CA, USA) and verified on single color control samples obtained staining primary splenocytes. For flow cytometry experiments that involved the DT injury model, we collected serum at the time of terminal sacrifice for quantification of troponin. […] Cell sorting was performed using a FACSAria sorting instrument (Beckton Dickinson) at the Washington University Department of Pathology Flow Cytometry and Sorting Core.

[2] = test system: PDICs obtained from thioglycolate-stimulated TIRAP−/− mice; experiment: CD86 on CD19+ cells in cultured PDICs from TIRAP−/− mice; type: cell-based, mouse; settings: LPS stimulated cultures
Excerpt: Noting that prior studies have shown that B cells are activated by engagement of TLR by damage-associated molecular patterns (DAMPs) released by necrotic cells (17), and noting that TLR signaling was present in CD19+CD11b− lymphocytes sorted from DT injured animals but absent in the same cells sorted from DT injured animals treated with Pirfenidone, we focused our in vitro studies on CD19+ cells using lipolysaccharide (a classic TLR4 agonist and a T-independent antigen), as well as necrotic cardiac cell extracts, which we and others have shown signal through TLR4 (18). […] To further explore the role of TLR mediated signaling, we repeated these experiments in PDICs obtained from thioglycolate-stimulated TIRAP−/− mice. […] Importantly, both mechanisms were sensitive to treatment with Pirfenidone (FIG. 10E and FIG. 10F).
Peritoneal derived inflammatory cells (PDICs) were harvested from the peritoneal cavity of thioglycolate-stimulated wild-type and TIRAP−/− deficient mice. PDIC cultures contain an admixture of inflammatory cells, including CD19+ B cells (40). TIRAP deficient mice were a gift from Dr. Ruslan Medzhitov (Yale University, New Haven, CT). PDICs were harvested on day 4 after i.p. injection of 1 ml of thioglycolate medium (Millipore, Billerica, MA, USA). […]

[3] = Plasma pharmacokinetics after IV or PO administration; type: in vivo; settings: SD Rat, PO 40 mg/kg

AUMC0-t, Mean [3]: 14976 h*h*ng/mL
Tmax ([3]; Sprague-Dawley, plasma, individual rats 7-9): 15 min
SMILES: Cc1ccc(=O)n(-c2ccccc2)c1 [Pirfenidone, 5 methyl-1-phenyl-2-[H] pyridone]
number of CD45+ cells/mg tissue ([1]; p=0.53): no significant effect
Ly6C+CD64 low/− monocytes ([1]; p=0.81): no significant effect
CD64+Ly6Clow/− macrophages ([1]; p=0.82): no significant effect
Ly6G+ neutrophils ([1]; p=0.82): no significant effect
CD19+ B-lymphocytes ([1]; p=0.94): no significant effect
CD19+ CD86high lymphocytes [2]: small but significant (p<0.001) decrease
Plasma concentrations of Pirfenidone ([3]; 8 h, individual rats 7-9, 40 mg/kg): BLOQ (Below lower limit of quantification (1 ng/mL)) and 23.6 ng/ml and 107 ng/ml
